Measurements taken from paper PMC9598367, “Discovery and Preliminary Structure-Activity Investigation of 3-Substituted-1H-imidazol-5-yl-1H-indoles with In Vitro Activity towards Methicillin-Resistant Staphylococcus aureus” (Antibiotics, 2022).

melting point [°C] | SMILES
66 to 67 | COc1ccc2c(-c3cncn3Cc3ccccc3)c[nH]c2c1 [Compound 50, 3-(1-Benzyl-1H-imidazol-5-yl)-6-methoxy-1H-indole]
181 to 182 | Fc1cccc2[nH]cc(-c3cncn3CCc3ccccc3)c12 [Compound 51, 4-Fluoro-3-(1-phenethyl-1H-imidazol-5-yl)-1H-indole]
45 to 46 | Fc1cccc2c(-c3cncn3CCc3ccccc3)c[nH]c12 [Compound 52, 7-Fluoro-3-(1-phenethyl-1H-imidazol-5-yl)-1H-indole]
73 to 74 | Clc1cccc2[nH]cc(-c3cncn3CCc3ccccc3)c12 [Compound 53, 4-Chloro-3-(1-phenethyl-1H-imidazol-5-yl)-1H-indole]
47 to 48 | Clc1cccc2c(-c3cncn3CCc3ccccc3)c[nH]c12 [Compound 54, 7-Chloro-3-(1-phenethyl-1H-imidazol-5-yl)-1H-indole]
204 to 205 | Brc1cccc2[nH]cc(-c3cncn3CCc3ccccc3)c12 [Compound 55, 4-Bromo-3-(1-phenethyl-1H-imidazol-5-yl)-1H-indole]
51 to 52 | COc1ccc2[nH]cc(-c3cncn3CCc3ccccc3)c2c1 [Compound 56, 5-Methoxy-3-(1-phenethyl-1H-imidazol-5-yl)-1H-indole]
66 to 67 | COc1ccc(Cn2cncc2-c2c[nH]c3cccc(F)c23)cc1 [Compound 59, 4-Fluoro-3-(1-(4-methoxybenzyl)-1H-imidazol-5-yl)-1H-indole]
179 to 180 | COc1ccc(Cn2cncc2-c2c[nH]c3c(F)cccc23)cc1 [Compound 60, 7-Fluoro-3-(1-(4-methoxybenzyl)-1H-imidazol-5-yl)-1H-indole]
74 to 75 | COc1ccc(Cn2cncc2-c2c[nH]c3cccc(Cl)c23)cc1 [Compound 61, 4-Chloro-3-(1-(4-methoxybenzyl)-1H-imidazol-5-yl)-1H-indole]
220 to 221 | COc1ccc(Cn2cncc2-c2c[nH]c3c(Cl)cccc23)cc1 [Compound 62, 7-Chloro-3-(1-(4-methoxybenzyl)-1H-imidazol-5-yl)-1H-indole]
92 to 93 | COc1ccc(Cn2cncc2-c2c[nH]c3cccc(Br)c23)cc1 [Compound 63, 4-Bromo-3-(1-(4-methoxybenzyl)-1H-imidazol-5-yl)-1H-indole]
67 to 68 | COc1ccc(Cn2cncc2-c2c[nH]c3ccc(OC)cc23)cc1 [Compound 64, 5-Methoxy-3-(1-(4-methoxybenzyl)-1H-imidazol-5-yl)-1H-indole]
65 to 66 | COc1ccc(Cn2cncc2-c2c[nH]c3cc(OC)ccc23)cc1 [Compound 65, 6-Methoxy-3-(1-(4-methoxybenzyl)-1H-imidazol-5-yl)-1H-indole]
56 to 57 | COc1ccc(CCn2cncc2-c2c[nH]c3cccc(F)c23)cc1 [Compound 66, 4-Fluoro-3-(1-(4-methoxyphenethyl)-1H-imidazol-5-yl)-1H-indole]
175 to 176 | COc1ccc(CCn2cncc2-c2c[nH]c3c(F)cccc23)cc1 [Compound 67, 7-Fluoro-3-(1-(4-methoxyphenethyl)-1H-imidazol-5-yl)-1H-indole]
76 to 77 | COc1ccc(CCn2cncc2-c2c[nH]c3cccc(Cl)c23)cc1 [Compound 68, 4-Chloro-3-(1-(4-methoxyphenethyl)-1H-imidazol-5-yl)-1H-indole]
59 to 60 | COc1ccc(CCn2cncc2-c2c[nH]c3c(Cl)cccc23)cc1 [Compound 69, 7-Chloro-3-(1-(4-methoxyphenethyl)-1H-imidazol-5-yl)-1H-indole]
83 to 84 | COc1ccc(CCn2cncc2-c2c[nH]c3cccc(Br)c23)cc1 [Compound 70, 4-Bromo-3-(1-(4-methoxyphenethyl)-1H-imidazol-5-yl)-1H-indole]

Further lines, the compound ahead of its results:

SMILES | melting point [°C]
CCCCCn1cncc1-c1c[nH]c2cccc(F)c12 | 147 to 148
CCCCCn1cncc1-c1c[nH]c2c(F)cccc12 | 164 to 165
CCCCCn1cncc1-c1c[nH]c2cccc(Cl)c12 | 188 to 189
Ic1ccc(Cn2cncc2-c2c[nH]c3ccccc23)cc1 [Compound 4, 3-(1-(4-Iodobenzyl)-1H-imidazol-5-yl)-1H-indole] | > 200
Fc1ccc2[nH]cc(-c3cncn3Cc3ccc(I)cc3)c2c1 [Compound 5, 5-Fluoro-3-(1-(4-iodobenzyl)-1H-imidazol-5-yl)-1H-indole] | 187 to 188
Clc1ccc2[nH]cc(-c3cncn3Cc3ccc(I)cc3)c2c1 [Compound 7, 5-Chloro-3-(1-(4-iodobenzyl)-1H-imidazol-5-yl)-1H-indole] | > 200
Clc1ccc2c(-c3cncn3Cc3ccc(I)cc3)c[nH]c2c1 [Compound 8, 6-Chloro-3-(1-(4-iodobenzyl)-1H-imidazol-5-yl)-1H-indole] | > 200
Brc1ccc2c(-c3cncn3Cc3ccc(I)cc3)c[nH]c2c1 [Compound 10, 6-Bromo-3-(1-(4-iodobenzyl)-1H-imidazol-5-yl)-1H-indole] | > 200
COc1ccc(Cn2cncc2-c2c[nH]c3ccc(F)cc23)cc1 [Compound 12, 5-Fluoro-3-(1-(4-methoxybenzyl)-1H-imidazol-5-yl)-1H-indole] | 181 to 182
COc1ccc(Cn2cncc2-c2c[nH]c3cc(F)ccc23)cc1 [Compound 13, 6-Fluoro-3-(1-(4-methoxybenzyl)-1H-imidazol-5-yl)-1H-indole] | 181 to 182
COc1ccc(Cn2cncc2-c2c[nH]c3ccc(Cl)cc23)cc1 [Compound 14, 5-Chloro-3-(1-(4-methoxybenzyl)-1H-imidazol-5-yl)-1H-indole] | 193 to 194
COc1ccc(Cn2cncc2-c2c[nH]c3cc(Cl)ccc23)cc1 [Compound 15, 6-Chloro-3-(1-(4-methoxybenzyl)-1H-imidazol-5-yl)-1H-indole] | 178 to 179
COc1ccc(Cn2cncc2-c2c[nH]c3ccc(Br)cc23)cc1 [Compound 16, 5-Bromo-3-(1-(4-methoxybenzyl)-1H-imidazol-5-yl)-1H-indole] | 197 to 198
Clc1ccc2c(-c3cncn3CCc3ccccc3)c[nH]c2c1 [Compound 20, 6-Chloro-3-(1-phenethyl-1H-imidazol-5-yl)-1H-indole] | 91 to 92
COc1ccc(CCn2cncc2-c2c[nH]c3ccc(F)cc23)cc1 [Compound 24, 5-Fluoro-3-(1-(4-methoxyphenethyl)-1H-imidazol-5-yl)-1H-indole] | 152 to 153
COc1ccc(OC)c(CCn2cncc2-c2c[nH]c3ccc(F)cc23)c1 [Compound 30, 3-(1-(2,5-Dimethoxyphenethyl)-1H-imidazol-5-yl)-5-fluoro-1H-indole] | 150 to 151

SMILES | melting point [°C]
COc1ccc(OC)c(CCn2cncc2-c2c[nH]c3cc(F)ccc23)c1 [Compound 31, 3-(1-(2,5-Dimethoxyphenethyl)-1H-imidazol-5-yl)-6-fluoro-1H-indole] | 130 to 131
COc1ccc(OC)c(CCn2cncc2-c2c[nH]c3cc(Cl)ccc23)c1 [Compound 33, 6-Chloro-3-(1-(2,5-dimethoxyphenethyl)-1H-imidazol-5-yl)-1H-indole] | 80 to 81
COc1ccc(OC)c(CCn2cncc2-c2c[nH]c3cc(Br)ccc23)c1 [Compound 35, 6-Bromo-3-(1-(2,5-dimethoxyphenethyl)-1H-imidazol-5-yl)-1H-indole] | 133 to 134
c1ccc2c(-c3cncn3CCc3ccc4c(c3)OCO4)c[nH]c2c1 [Compound 36, 3-(1-(2-(Benzo[d][1,3]dioxol-5-yl)ethyl)-1H-imidazol-5-yl)-1H-indole] | 195 to 196
Fc1ccc2[nH]cc(-c3cncn3CCc3ccc4c(c3)OCO4)c2c1 [Compound 37, 3-(1-(2-(Benzo[d][1,3]dioxol-5-yl)ethyl)-1H-imidazol-5-yl)-5-fluoro-1H-indole] | > 200
Fc1ccc2c(-c3cncn3CCc3ccc4c(c3)OCO4)c[nH]c2c1 [Compound 38, 3-(1-(2-(Benzo[d][1,3]dioxol-5-yl)ethyl)-1H-imidazol-5-yl)-6-fluoro-1H-indole] | 188 to 189
Clc1ccc2[nH]cc(-c3cncn3CCc3ccc4c(c3)OCO4)c2c1 [Compound 39, 3-(1-(2-(Benzo[d][1,3]dioxol-5-yl)ethyl)-1H-imidazol-5-yl)-5-chloro-1H-indole] | > 200
Clc1ccc2c(-c3cncn3CCc3ccc4c(c3)OCO4)c[nH]c2c1 [Compound 40, 3-(1-(2-(Benzo[d][1,3]dioxol-5-yl)ethyl)-1H-imidazol-5-yl)-6-chloro-1H-indole] | 180 to 181
Brc1ccc2[nH]cc(-c3cncn3CCc3ccc4c(c3)OCO4)c2c1 [Compound 41, 3-(1-(2-(Benzo[d][1,3]dioxol-5-yl)ethyl)-1H-imidazol-5-yl)-5-bromo-1H-indole] | 176 to 177
Fc1cccc2[nH]cc(-c3cncn3Cc3ccccc3)c12 [Compound 43, 3-(1-Benzyl-1H-imidazol-5-yl)-4-fluoro-1H-indole] | 177 to 178
Fc1cccc2c(-c3cncn3Cc3ccccc3)c[nH]c12 [Compound 44, 3-(1-Benzyl-1H-imidazol-5-yl)-7-fluoro-1H-indole] | 179 to 180
Clc1cccc2[nH]cc(-c3cncn3Cc3ccccc3)c12 [Compound 45, 3-(1-Benzyl-1H-imidazol-5-yl)-4-chloro-1H-indole] | 198 to 199
Clc1ccc2[nH]cc(-c3cncn3Cc3ccccc3)c2c1 [Compound 46, 3-(1-Benzyl-1H-imidazol-5-yl)-5-chloro-1H-indole] | 78 to 79
Clc1cccc2c(-c3cncn3Cc3ccccc3)c[nH]c12 [Compound 47, 3-(1-Benzyl-1H-imidazol-5-yl)-7-chloro-1H-indole] | 179 to 180
Brc1cccc2[nH]cc(-c3cncn3Cc3ccccc3)c12 [Compound 48, 3-(1-Benzyl-1H-imidazol-5-yl)-4-bromo-1H-indole] | 201 to 202
COc1ccc2[nH]cc(-c3cncn3Cc3ccccc3)c2c1 [Compound 49, 3-(1-Benzyl-1H-imidazol-5-yl)-5-methoxy-1H-indole] | 65 to 66
